Data taken from US6737383B1, “Herbicidal oxadiazolidines” (priority 1999, dated 2004).

How the values were obtained:
rice = test: Test B flood test rice; type: in vivo, Oryza sativa; conditions: for Plant response rating, Rice (0 to 10 scale, 0 is no effect, 10 is complete control): Rate 62 g/ha; for Plant response rating, Rice (0 to 10 scale, 0 is no effect, 10 is complete control) / Rice plant response rating (0 to 10 scale, 0 is no effect, 10 is complete control): visual evaluation after twelve to sixteen days; for Rice plant response rating (0 to 10 scale, 0 is no effect, 10 is complete control): Rate 125 g/ha, under heading Pre-emergence
How it was run: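 Plants were grown to the 2-leaf stage before treatment with test chemical, then held in a greenhouse for twelve to sixteen days. Injury was visually rated against untreated controls on a 0–10 scale, where 0 is no effect and 10 is complete control.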

corn = test: Test B pre/postemergence corn; type: in vivo, Zea mays
How it was run: (§1)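 Test chemicals in a non-phytotoxic solvent mixture with surfactant were sprayed preemergence onto planted seeds and postemergence onto plants 2 to 18 cm tall (1- to 4-leaf stage). After twelve to sixteen days in a greenhouse, injury was visually rated against untreated controls from 0 (no effect) to 10 (complete control).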

velvetleaf = test: Test B pre/postemergence velvetleaf; type: in vivo, Abutilon theophrasti
How it was run: as §1

crabgrass = test: Test B pre/postemergence crabgrass; type: in vivo, Digitaria sanguinalis
How it was run: as §1

[1] = flood test species, Pre-emergence
[2] = Rate 250 g/ha, Pre-emergence (flood test species), scale 0 to 10, 0 is no effect, 10 is complete control
[3] = Rate 500 g/ha, Pre-emergence, flood test species, scale 0 to 10 (0 no effect, 10 complete control)
[4] = Postemergence, Rate 250 g/ha, scale 0 to 10
[5] = Postemergence, Rate 500 g/ha, scale of 0 to 10 where 0 is no effect and 10 is complete control
[6] = Preemergence, Rate 62 g/ha, scale of 0 to 10 where 0 is no effect and 10 is complete control
[7] = Preemergence, Rate 125 g/ha, scale of 0 to 10 where 0 is no effect and 10 is complete control
[8] = Preemergence, Rate 250 g/ha, scale 0 to 10, 0 is no effect, 10 is complete control
[9] = Preemergence, Rate 500 g/ha, scale 0 to 10, 0 is no effect, 10 is complete control
[10] = Rate 62 g/ha, Postemergence, scale 0 to 10 (0 no effect, 10 complete control)
[11] = Rate 125 g/ha, Postemergence, scale 0 to 10, 0 is no effect, 10 is complete control
[12] = Rate 500 g/ha, Pre-emergence section of Table B, 0 to 10 scale (0 no effect, 10 complete control)
[13] = Postemergence, Rate 62 g/ha, scale of 0 to 10, 0 is no effect, 10 is complete control
[14] = Postemergence, Rate 125 g/ha, scale 0 to 10, 0 is no effect, 10 is complete control
[15] = Postemergence, Rate 500 g/ha, scale 0 to 10, 0 is no effect, 10 is complete control
[16] = Preemergence, Rate 125 g/ha, scale 0 to 10, 0 is no effect, 10 is complete control
[17] = Preemergence, Rate 500 g/ha, scale of 0 to 10 where 0 is no effect and 10 is complete control
[18] = Rate 250 g/ha, Postemergence, scale of 0 to 10 where 0 is no effect and 10 is complete control
[19] = Preemergence, Rate 62 g/ha, scale 0 to 10 (0 no effect, 10 complete control)
[20] = Postemergence, Rate 125 g/ha, scale of 0 to 10 where 0 is no effect and 10 is complete control

CC(C)N(C(=O)n1oc(=O)n(CCCl)c1=O)c1ccccc1 [Compound 469]
0: Plant response rating, Rice (0 to 10 scale, 0 is no effect, 10 is complete control) (rice; [1]) | Rice plant response rating (0 to 10 scale, 0 is no effect, 10 is complete control) (rice; flood test species) | Rice plant response rating (rice; [2]) | Rice plant response rating (rice; [3]) | Plant response rating, Corn (corn; [6]) | Corn plant response rating (corn; [10]) | Corn plant response rating (corn; [11]) | Velvetleaf plant response rating (velvetleaf; [4]) | Velvetleaf plant response rating (velvetleaf; [10]) | Velvetleaf plant response rating (velvetleaf; [11])
9: Corn plant response rating (corn; [9]) | Crabgrass plant response rating (crabgrass; [4]) | Crabgrass plant response rating (crabgrass; [5]) | Plant response rating, Crabgrass (crabgrass; [6])
5: Plant response rating, Velvetleaf (velvetleaf; [7])
10: Plant response rating, Crabgrass (crabgrass; [7]) | Crabgrass plant response rating (crabgrass; [8]) | Crabgrass plant response rating (crabgrass; [9])
6: Velvetleaf plant response rating (velvetleaf; [8]) | Crabgrass plant response rating (crabgrass; [11])
4: Corn plant response rating (corn; [5]) | Plant response rating, Velvetleaf (velvetleaf; [6])
8: Corn plant response rating (corn; [8])
2: Corn plant response rating (corn; [4]) | Plant response rating, Corn (corn; [7])
3: Crabgrass plant response rating (crabgrass; [10])
7: Velvetleaf plant response rating (velvetleaf; [9])

CC(C)N(C(=O)n1oc(=O)n(CO)c1=O)c1ccc(F)cc1 [Compound 470]
9: Crabgrass plant response rating (crabgrass; [9])
1: Plant response rating, Crabgrass (crabgrass; [6])
8: Crabgrass plant response rating (crabgrass; [8])
7: Plant response rating, Crabgrass (crabgrass; [7])
0: Plant response rating, Rice (0 to 10 scale, 0 is no effect, 10 is complete control) (rice; [1]) | Rice plant response rating (0 to 10 scale, 0 is no effect, 10 is complete control) (rice; flood test species) | Rice plant response rating (rice; [2]) | Rice plant response rating (rice; [3]) | Corn plant response rating (corn; [4]) | Corn plant response rating (corn; [5]) | Plant response rating, Corn (corn; [6]) | Plant response rating, Corn (corn; [7]) | Corn plant response rating (corn; [8]) | Corn plant response rating (corn; [9]) | Corn plant response rating (corn; [10]) | Corn plant response rating (corn; [11]) | Velvetleaf plant response rating (velvetleaf; [4]) | Plant response rating, Velvetleaf (velvetleaf; [6]) | Plant response rating, Velvetleaf (velvetleaf; [7]) | Velvetleaf plant response rating (velvetleaf; [8]) | Velvetleaf plant response rating (velvetleaf; [9]) | Velvetleaf plant response rating (velvetleaf; [10]) | Velvetleaf plant response rating (velvetleaf; [11]) | Crabgrass plant response rating (crabgrass; [4]) | Crabgrass plant response rating (crabgrass; [5]) | Crabgrass plant response rating (crabgrass; [10]) | Crabgrass plant response rating (crabgrass; [11])

CC(C)N(C(=O)n1oc(=O)n(CC(=O)N(C)C)c1=O)c1ccc(Cl)cc1 [Compound 477]
2: Crabgrass plant response rating (crabgrass; [11])
5: Crabgrass plant response rating (crabgrass; [4])
0: Plant response rating, Rice (0 to 10 scale, 0 is no effect, 10 is complete control) (rice; [1]) | Rice plant response rating (0 to 10 scale, 0 is no effect, 10 is complete control) (rice; flood test species) | Rice plant response rating (rice; [2]) | Rice plant response rating (rice; [3]) | Corn plant response rating (corn; [4]) | Corn plant response rating (corn; [5]) | Plant response rating, Corn (corn; [6]) | Plant response rating, Corn (corn; [7]) | Corn plant response rating (corn; [8]) | Corn plant response rating (corn; [9]) | Corn plant response rating (corn; [10]) | Corn plant response rating (corn; [11]) | Velvetleaf plant response rating (velvetleaf; [4]) | Plant response rating, Velvetleaf (velvetleaf; [6]) | Plant response rating, Velvetleaf (velvetleaf; [7]) | Velvetleaf plant response rating (velvetleaf; [8]) | Velvetleaf plant response rating (velvetleaf; [9]) | Velvetleaf plant response rating (velvetleaf; [10]) | Velvetleaf plant response rating (velvetleaf; [11])
1: Crabgrass plant response rating (crabgrass; [10])
10: Crabgrass plant response rating (crabgrass; [8]) | Crabgrass plant response rating (crabgrass; [9])
7: Crabgrass plant response rating (crabgrass; [5])
8: Plant response rating, Crabgrass (crabgrass; [6]) | Plant response rating, Crabgrass (crabgrass; [7])

CC(C)N(C(=O)n1oc(=O)n(C(C)C(=O)N(C)C)c1=O)c1ccccc1 (centres unmarked) [Compound 479]
4: Corn plant response rating (corn; [5])
3: Corn plant response rating (corn; [9]) | Crabgrass plant response rating (crabgrass; [11])
1: Velvetleaf plant response rating (velvetleaf; [8])
6: Crabgrass plant response rating (crabgrass; [4])
10: Crabgrass plant response rating (crabgrass; [9])
5: Velvetleaf plant response rating (velvetleaf; [9])
8: Plant response rating, Crabgrass (crabgrass; [7])
9: Crabgrass plant response rating (crabgrass; [5]) | Crabgrass plant response rating (crabgrass; [8])
0: Plant response rating, Rice (0 to 10 scale, 0 is no effect, 10 is complete control) (rice; [1]) | Rice plant response rating (0 to 10 scale, 0 is no effect, 10 is complete control) (rice; flood test species) | Rice plant response rating (rice; [2]) | Rice plant response rating (rice; [3]) | Corn plant response rating (corn; [4]) | Plant response rating, Corn (corn; [6]) | Plant response rating, Corn (corn; [7]) | Corn plant response rating (corn; [8]) | Corn plant response rating (corn; [10]) | Corn plant response rating (corn; [11]) | Velvetleaf plant response rating (velvetleaf; [4]) | Plant response rating, Velvetleaf (velvetleaf; [6]) | Plant response rating, Velvetleaf (velvetleaf; [7]) | Velvetleaf plant response rating (velvetleaf; [10]) | Velvetleaf plant response rating (velvetleaf; [11])
2: Crabgrass plant response rating (crabgrass; [10])

CC(C)N(C(=O)n1oc(=O)n(CC2CCC2)c1=O)c1ccc(F)cc1F [Compound 521]
3: Corn plant response rating (corn; [17]) | Plant response rating, Velvetleaf (velvetleaf; [15]) | Velvetleaf plant response rating (velvetleaf; [17])
10: Plant response rating, Crabgrass (crabgrass; [15]) | Plant response rating, Crabgrass (crabgrass; [6]) | Crabgrass plant response rating (crabgrass; [16]) | Crabgrass plant response rating (0 to 10 scale) (crabgrass; Preemergence, Rate 250 g/ha) | Crabgrass plant response rating (crabgrass; [17]) | Plant response rating, Crabgrass (crabgrass; [18])
4: Crabgrass plant response rating (crabgrass; [14])
2: Velvetleaf plant response rating (0 to 10 scale) (velvetleaf; Preemergence, Rate 250 g/ha) | Plant response rating, Velvetleaf (velvetleaf; [18]) | Crabgrass plant response rating (crabgrass; [13])
0: Plant response rating, Rice (0 to 10 scale, 0 is no effect, 10 is complete control) (rice; [1]) | Rice plant response rating (0 to 10 scale, 0 is no effect, 10 is complete control) (rice; flood test species) | Rice plant response rating (rice; [2]) | Rice plant response rating (rice; [12]) | Corn plant response rating (corn; [13]) | Corn plant response rating (corn; [14]) | Plant response rating, Corn (corn; [15]) | Plant response rating, Corn (corn; [6]) | Corn plant response rating (corn; [16]) | Corn plant response rating (0 to 10 scale) (corn; Preemergence, Rate 250 g/ha) | Plant response rating, Corn (corn; [18]) | Velvetleaf plant response rating (velvetleaf; [13]) | Velvetleaf plant response rating (velvetleaf; [14]) | Plant response rating, Velvetleaf (velvetleaf; [6]) | Velvetleaf plant response rating (velvetleaf; [16])

CC(C)N(C(=O)n1oc(=O)n(CCC2OCCCO2)c1=O)c1ccccc1 [Compound 561]
5: Corn plant response rating (corn; [17])
4: Plant response rating, Crabgrass (crabgrass; [18])
9: Plant response rating, Crabgrass (crabgrass; [5]) | Crabgrass plant response rating (crabgrass; [19]) | Crabgrass plant response rating (crabgrass; [16]) | Crabgrass plant response rating (0 to 10 scale) (crabgrass; Preemergence, Rate 250 g/ha) | Crabgrass plant response rating (crabgrass; [17])
2: Corn plant response rating (0 to 10 scale) (corn; Preemergence, Rate 250 g/ha) | Velvetleaf plant response rating (velvetleaf; [17]) | Crabgrass plant response rating (crabgrass; [13])
3: Plant response rating, Corn (corn; [5]) | Crabgrass plant response rating (crabgrass; [14])
0: Plant response rating, Rice (0 to 10 scale, 0 is no effect, 10 is complete control) (rice; [1]) | Rice plant response rating (0 to 10 scale, 0 is no effect, 10 is complete control) (rice; flood test species) | Rice plant response rating (rice; [2]) | Rice plant response rating (rice; [12]) | Corn plant response rating (corn; [13]) | Corn plant response rating (corn; [14]) | Corn plant response rating (corn; [19]) | Corn plant response rating (corn; [16]) | Plant response rating, Corn (corn; [18]) | Velvetleaf plant response rating (velvetleaf; [13]) | Plant response rating, Velvetleaf (velvetleaf; [5]) | Velvetleaf plant response rating (velvetleaf; [19]) | Velvetleaf plant response rating (velvetleaf; [16]) | Velvetleaf plant response rating (0 to 10 scale) (velvetleaf; Preemergence, Rate 250 g/ha) | Plant response rating, Velvetleaf (velvetleaf; [18])

CC(C)N(C(=O)n1oc(=O)n(CC2CCC2)c1=O)c1ccccc1 [Compound 580]
2: Corn plant response rating (0 to 10 scale) (corn; Preemergence, Rate 250 g/ha) | Plant response rating, Velvetleaf (velvetleaf; [20]) | Velvetleaf plant response rating (0 to 10 scale) (velvetleaf; Preemergence, Rate 250 g/ha) | Plant response rating, Velvetleaf (velvetleaf; [18])
9: Crabgrass plant response rating (0 to 10 scale) (crabgrass; Preemergence, Rate 250 g/ha) | Crabgrass plant response rating (crabgrass; [17]) | Plant response rating, Crabgrass (crabgrass; [18])
6: Crabgrass plant response rating (crabgrass; [19]) | Crabgrass plant response rating (crabgrass; [7])
5: Corn plant response rating (corn; [17]) | Velvetleaf plant response rating (velvetleaf; [17])
3: Plant response rating, Velvetleaf (velvetleaf; [5]) | Plant response rating, Crabgrass (crabgrass; [20])
0: Plant response rating, Rice (0 to 10 scale, 0 is no effect, 10 is complete control) (rice; [1]) | Rice plant response rating (0 to 10 scale, 0 is no effect, 10 is complete control) (rice; flood test species) | Rice plant response rating (rice; [2]) | Rice plant response rating (rice; [12]) | Corn plant response rating (corn; [13]) | Plant response rating, Corn (corn; [20]) | Plant response rating, Corn (corn; [5]) | Corn plant response rating (corn; [19]) | Corn plant response rating (corn; [7]) | Plant response rating, Corn (corn; [18]) | Velvetleaf plant response rating (velvetleaf; [19]) | Velvetleaf plant response rating (velvetleaf; [7]) | Crabgrass plant response rating (crabgrass; [13])
